Where a SMILES comes first, the peptide text is derived from it. [ ]: non-standard residue; d: D form. Nle = CCCC[C@H](N)C(=O)O

Data on one molecule can be found in ChEMBL document CHEMBL1130546, “Oligopresentation of protease inhibitors with -cyclodextrin as template” (Bioorg Med Chem Lett, 1997).

Experiment [1] has as its target Cathepsin B (Homo sapiens, UniProt P07858). Nature of the experiment: Equilibrium dissociation constant for the inhibition of human cathepsin B was determined.
The target of experiment [2] is T1, Calpain-1 catalytic subunit (Homo sapiens, UniProt P07384).
T1 sequence (P07384 whole entry): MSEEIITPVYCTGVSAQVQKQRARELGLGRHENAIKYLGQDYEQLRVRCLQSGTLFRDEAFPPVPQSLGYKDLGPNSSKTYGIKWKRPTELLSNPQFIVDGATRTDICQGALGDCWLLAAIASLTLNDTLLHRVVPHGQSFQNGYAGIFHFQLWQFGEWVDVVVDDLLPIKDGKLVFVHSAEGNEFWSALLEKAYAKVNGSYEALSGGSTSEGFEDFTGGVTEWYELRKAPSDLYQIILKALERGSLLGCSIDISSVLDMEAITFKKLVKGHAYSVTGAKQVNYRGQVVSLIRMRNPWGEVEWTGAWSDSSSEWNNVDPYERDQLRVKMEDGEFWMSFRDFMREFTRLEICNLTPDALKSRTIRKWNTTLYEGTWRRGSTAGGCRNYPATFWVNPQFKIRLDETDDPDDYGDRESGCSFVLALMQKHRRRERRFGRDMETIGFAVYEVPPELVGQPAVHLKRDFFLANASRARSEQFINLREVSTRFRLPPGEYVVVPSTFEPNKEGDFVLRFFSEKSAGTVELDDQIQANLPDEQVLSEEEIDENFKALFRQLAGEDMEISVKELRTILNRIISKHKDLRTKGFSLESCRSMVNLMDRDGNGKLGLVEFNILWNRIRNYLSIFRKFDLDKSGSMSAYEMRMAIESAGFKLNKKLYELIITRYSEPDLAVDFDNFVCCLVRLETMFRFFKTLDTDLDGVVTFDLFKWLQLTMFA
Nature of the experiment: Equilibrium dissociation constant for the inhibition of human Mu-calpain was determined.

On to `CCCC[C@H](NC(=O)[C@H](CC(C)C)NC(=O)[C@H](CC(C)C)NC(C)=O)C(=O)O` (Ac-Leu-Leu-[Nle]-OH), for which the results for the Ki in experiment [1] and in experiment [2] were 1 nM and 3.4 nM, respectively.

For orientation: Ki means the equilibrium dissociation constant of an inhibitor or competing ligand from its target. Read a high Ki as a looser hold on the target.
